Holding throughout (type): cell-based
The target of assay [1] is T1, rat GAT1 (rGAT1) (Rattus norvegicus, UniProt P23978).
T1 construct: gene Slc6a1
The experiment in a line: TEVC transport currents in Xenopus oocytes; LC-MS/MS uptake; [3H]-GABA efflux in HEK293-rGAT1 cells.

The target in assay [2] is T2, human GAT1 (hGAT1) (Homo sapiens, UniProt P30531).
T2 construct: gene SLC6A1
The experiment in a line: automated whole-cell patch clamp (Patchliner) on CHO cells overexpressing hGAT1. Background: Patch clamp records ionic current or voltage across a cell membrane.

Assay [3] concerns the target T3, canine BGT-1 (cBGT-1) (Canis lupus, UniProt P27799).
T3 construct: gene SLC6A12
T3 sequence (P27799 1-614): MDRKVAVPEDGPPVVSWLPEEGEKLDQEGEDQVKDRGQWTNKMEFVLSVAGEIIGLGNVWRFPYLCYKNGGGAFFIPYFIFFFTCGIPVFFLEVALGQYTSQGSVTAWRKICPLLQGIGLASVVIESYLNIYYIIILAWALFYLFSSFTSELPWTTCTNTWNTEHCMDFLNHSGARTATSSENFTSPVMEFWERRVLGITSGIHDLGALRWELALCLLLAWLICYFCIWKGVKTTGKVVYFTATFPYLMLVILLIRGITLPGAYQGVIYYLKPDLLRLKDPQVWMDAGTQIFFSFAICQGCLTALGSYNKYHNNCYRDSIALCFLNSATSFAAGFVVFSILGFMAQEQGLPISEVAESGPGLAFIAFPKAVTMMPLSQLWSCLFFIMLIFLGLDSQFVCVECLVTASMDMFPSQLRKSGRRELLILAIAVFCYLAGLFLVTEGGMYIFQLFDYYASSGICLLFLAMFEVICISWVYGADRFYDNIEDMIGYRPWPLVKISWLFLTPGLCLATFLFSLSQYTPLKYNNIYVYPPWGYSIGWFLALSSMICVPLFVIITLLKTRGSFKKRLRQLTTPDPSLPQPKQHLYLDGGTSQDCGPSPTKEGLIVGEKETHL
Put plainly: TEVC transport currents in Xenopus oocytes.

As usually defined, the EC50 is the midpoint of the concentration-response curve. Read a high EC50 as a less potent agent.

T2 sequence (P30531 whole entry): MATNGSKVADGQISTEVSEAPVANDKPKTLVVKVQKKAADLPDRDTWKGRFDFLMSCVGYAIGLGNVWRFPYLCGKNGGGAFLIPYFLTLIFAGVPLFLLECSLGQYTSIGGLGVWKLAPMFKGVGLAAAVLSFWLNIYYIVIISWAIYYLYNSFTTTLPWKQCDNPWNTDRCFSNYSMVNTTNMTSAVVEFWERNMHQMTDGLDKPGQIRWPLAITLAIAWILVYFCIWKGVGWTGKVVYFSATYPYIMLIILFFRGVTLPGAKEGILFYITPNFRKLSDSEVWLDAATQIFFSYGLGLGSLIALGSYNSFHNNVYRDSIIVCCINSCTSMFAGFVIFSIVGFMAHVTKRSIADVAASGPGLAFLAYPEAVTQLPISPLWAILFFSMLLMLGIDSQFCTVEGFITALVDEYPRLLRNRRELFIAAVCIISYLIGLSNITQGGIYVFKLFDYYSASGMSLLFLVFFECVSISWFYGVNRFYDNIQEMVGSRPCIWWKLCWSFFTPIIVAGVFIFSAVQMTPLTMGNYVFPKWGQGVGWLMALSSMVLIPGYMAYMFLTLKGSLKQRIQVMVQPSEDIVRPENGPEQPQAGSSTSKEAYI

In the case of `C[N+](C)(C)CC(=O)O` [Betaine], the EC50 in assay [1] is 11.6 mM; in assay [2], ~27 mM; in assay [3], 1.69 mM.

The values above are taken from article PMC11335192, “Unveiling the crucial role of betaine: modulation of GABA homeostasis via SLC6A1 transporter (GAT1)” (Cellular and Molecular Life Sciences: CMLS, 2024).
